Results as given in article PMC5518475 (Bioorganic & medicinal chemistry letters, 2017).
Values belong to the compound of their own block, whether it stands above or below them.

Key:
[1] = biological target: T1, hM4 (Homo sapiens, UniProt P08173); format: cell-based; settings: for hM4 pEC50 (±SEM): hM4/Gqi5-CHO cells, EC20 fixed concentration of acetylcholine, mean of n=3
T1 sequence (P08173 1-479): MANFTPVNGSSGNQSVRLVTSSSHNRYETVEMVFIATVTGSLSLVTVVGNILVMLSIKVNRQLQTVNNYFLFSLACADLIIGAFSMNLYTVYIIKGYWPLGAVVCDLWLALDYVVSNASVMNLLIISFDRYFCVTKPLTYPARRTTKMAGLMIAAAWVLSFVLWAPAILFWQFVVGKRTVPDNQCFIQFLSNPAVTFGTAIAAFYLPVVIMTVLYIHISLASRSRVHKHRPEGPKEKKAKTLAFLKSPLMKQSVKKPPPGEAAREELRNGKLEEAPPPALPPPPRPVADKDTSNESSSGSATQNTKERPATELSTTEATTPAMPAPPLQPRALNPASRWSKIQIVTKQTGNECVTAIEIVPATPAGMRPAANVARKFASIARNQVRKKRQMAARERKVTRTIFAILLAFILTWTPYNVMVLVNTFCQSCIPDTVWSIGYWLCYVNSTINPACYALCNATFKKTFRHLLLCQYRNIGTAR

[2] = Predicted hepatic clearance from human hepatic microsomal CLint; format: in vitro ADME; settings: based on hepatic microsomal CLint
[3] = Predicted hepatic clearance from rat hepatic microsomal CLint; format: in vitro ADME; settings: based on hepatic microsomal CLint
[4] = biological target: human P-gp (Homo sapiens, UniProt P08183); experiment: P-gp efflux in MDCK-MDR1 cells; format: in vitro ADME
Chain of human P-gp (P08183 whole entry): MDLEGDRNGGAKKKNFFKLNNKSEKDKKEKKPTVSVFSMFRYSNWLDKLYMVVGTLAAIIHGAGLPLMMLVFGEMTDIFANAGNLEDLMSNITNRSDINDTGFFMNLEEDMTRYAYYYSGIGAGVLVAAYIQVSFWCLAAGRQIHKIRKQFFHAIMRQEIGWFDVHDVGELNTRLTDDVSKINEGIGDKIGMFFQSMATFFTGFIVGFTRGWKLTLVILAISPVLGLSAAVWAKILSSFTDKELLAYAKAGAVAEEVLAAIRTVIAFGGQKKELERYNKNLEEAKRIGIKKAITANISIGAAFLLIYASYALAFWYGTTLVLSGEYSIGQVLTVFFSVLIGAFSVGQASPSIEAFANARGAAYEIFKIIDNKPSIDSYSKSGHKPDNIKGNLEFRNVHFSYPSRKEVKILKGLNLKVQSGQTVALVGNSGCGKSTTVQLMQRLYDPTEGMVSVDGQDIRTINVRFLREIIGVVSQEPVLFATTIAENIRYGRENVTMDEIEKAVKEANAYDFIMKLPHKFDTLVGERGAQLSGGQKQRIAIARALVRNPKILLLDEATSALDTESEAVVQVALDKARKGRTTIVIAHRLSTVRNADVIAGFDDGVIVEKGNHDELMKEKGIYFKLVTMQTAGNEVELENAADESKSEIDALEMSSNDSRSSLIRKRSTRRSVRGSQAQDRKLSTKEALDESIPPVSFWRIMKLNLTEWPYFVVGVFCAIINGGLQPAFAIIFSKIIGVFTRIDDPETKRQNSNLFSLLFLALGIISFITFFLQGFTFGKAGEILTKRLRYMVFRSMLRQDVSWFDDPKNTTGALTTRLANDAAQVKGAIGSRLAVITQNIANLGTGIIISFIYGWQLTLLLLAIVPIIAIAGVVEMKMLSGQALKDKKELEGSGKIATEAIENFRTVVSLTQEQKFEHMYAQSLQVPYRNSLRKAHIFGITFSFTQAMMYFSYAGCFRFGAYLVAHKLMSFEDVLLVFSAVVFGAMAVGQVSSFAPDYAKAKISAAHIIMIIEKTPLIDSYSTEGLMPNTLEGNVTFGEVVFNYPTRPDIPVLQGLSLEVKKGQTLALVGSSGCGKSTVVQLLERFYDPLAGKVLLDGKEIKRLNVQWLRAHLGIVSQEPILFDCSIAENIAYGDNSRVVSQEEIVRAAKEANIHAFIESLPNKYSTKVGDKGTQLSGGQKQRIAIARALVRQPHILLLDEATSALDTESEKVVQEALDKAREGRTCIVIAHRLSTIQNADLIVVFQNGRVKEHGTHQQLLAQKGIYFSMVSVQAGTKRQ

[5] = Rat in vivo PK; settings: rat in vivo PK studies
[6] = Ames test
[7] = Predicted human PK; settings: based on moderate and small predicted CL and Vss
[8] = biological target: T2, human M4 (Homo sapiens, UniProt P08173); experiment: ACh CRC fold-shift experiments; format: cell-based; settings: operational model
T2 sequence (P08173 1-479): T1 sequence (P08173 1-479)

[9] = Dog in vivo PK; settings: female, mongrel, plasma, iv
[10] = tested on: CYP450; experiment: CYP450 time-dependent inhibition; format: in vitro ADME
[11] = biological target: cynomolgus monkey M4 (Macaca fascicularis, UniProt G7PQB4); experiment: ACh CRC fold-shift experiments; format: cell-based; settings: operational model

hM4 pEC50 (±SEM) [1]: 7.62±0.19
Compound: Cc1nnc2sc(C(=O)NC3CN(C(=O)OCc4ccccc4)C3)c(N)c2c1C [Compound 6a]

hM4 pEC50 (±SEM) [1]: 7.23±0.17
Compound: Cc1cccc(OC(=O)N2CC(NC(=O)c3sc4nnc(C)c(C)c4c3N)C2)c1 [Compound 6c]

hM4 pEC50 (±SEM) [1]: 6.22±0.25
Compound: Cc1nnc2sc(C(=O)NC3CN(C(=O)c4ccccc4)C3)c(N)c2c1C [Compound 6f]

hM4 pEC50 (±SEM) [1]: 6.45±0.19
Compound: Cc1nnc2sc(C(=O)NC3CN(c4nc5ccccc5o4)C3)c(N)c2c1C [Compound 16b]

predicted CLhep [2]: 12 mL/min/kg
predicted CLhep [3]: 41 mL/min/kg
hM4 pEC50 (±SEM) [1]: 7.04±0.16
Compound: Cc1nnc2sc(C(=O)NC3CN(c4nc5cccnc5s4)C3)c(N)c2c1C [Compound 16c]

hM4 pEC50 (±SEM) [1]: 6.99±0.18
Compound: Cc1nnc2sc(C(=O)NC3CN(c4ccccn4)C3)c(N)c2c1C [Compound 16d]

human P-gp efflux substrate [4]: substrates for human P-gp efflux
Compound: Cc1nnc2sc(C(=O)NC3CN(c4cccnc4)C3)c(N)c2c1C [Compound 16e]

hM4 pEC50 (±SEM) [1]: 7.48±0.17
Compound: Cc1nnc2sc(C(=O)NC3CN(c4ccncn4)C3)c(N)c2c1C [Compound 16h]

human P-gp efflux substrate [4]: substrates for human P-gp efflux
hM4 pEC50 (±SEM) [1]: 7.74±0.22
Compound: Cc1nnc2sc(C(=O)NC3CN(c4cccnc4F)C3)c(N)c2c1C [Compound 16i]

predicted CLhep [2]: 5.6 mL/min/kg
predicted CLhep [3]: 18 mL/min/kg
Compound: Cc1nnc2sc(C(=O)NC3CN(c4ccc(C(F)(F)F)nc4)C3)c(N)c2c1C [Compound 16j]

hM4 pEC50 (±SEM) [1]: 6.80±0.19
Compound: Cc1nnc2sc(C(=O)NC3CN(c4ccnc(Cl)c4)C3)c(N)c2c1C [Compound 16n]

Compound: COc1cc(N2CC(NC(=O)c3sc4nnc(C)c(C)c4c3N)C2)ccn1 [Compound 16o]
rat in vivo PK finding on metabolism [5]: evidence for extrahepatic non-CYP450 metabolism

Compound: Cc1nnc2sc(C(=O)NC3CN(c4ccncc4Cl)C3)c(N)c2c1C [Compound 16p]
rat in vivo PK finding on metabolism [5]: evidence for extrahepatic non-CYP450 metabolism

human P-gp efflux substrate [4]: substrates for human P-gp efflux
Compound: Cc1nnc2sc(C(=O)NC3CN(c4cc(F)nc(F)c4)C3)c(N)c2c1C [Compound 16q]

weaker hM4 activity compared to that of 17j [1]: ~ 10 fold
Compound: Cc1nnc2sc(C(=O)NC3CN(c4ccc(S(=O)(=O)C(F)(F)F)cc4)C3)c(N)c2c1C [Compound 17f]

weaker hM4 activity compared to that of 17j [1]: ~40 fold
hM4 pEC50 (±SEM) [1]: 6.63±0.29
Compound: Cc1nnc2sc(C(=O)NC3CN(c4ccc(S(=O)(=O)C(F)F)cc4)C3)c(N)c2c1C [Compound 17g]

hM4 pEC50 (±SEM) [1]: 7.49±0.12
Compound: Cc1nnc2sc(C(=O)NC3CN(c4ccc(F)cc4F)C3)c(N)c2c1C [Compound 17h]

Compound: Cc1nnc2sc(C(=O)NC3CN(c4cccc(F)c4F)C3)c(N)c2c1C [Compound 17j]
Ames test result [6]: no evidence of mutagenesis
predicted human t1/2 [7]: 1 to 2 h
human M4 αβ [8]: 380
clearance [9]: 17 mL/min/kg
time-dependent CYP450 inhibition [10]: no evidence for time-dependent inhibition
cynomolgus monkey M4 αβ [11]: 120
